Data on two compounds can be found in publication PMC10570359, “Dietary supplementation of cystinotic mice by lysine inhibits the megalin pathway and decreases kidney cystine content” (Scientific Reports, 2023).

In one assay the test system is Ctns KO mice kidneys. Kind of assay: Kidney cystine content in Ctns KO mice. The format is in vivo. The conditions noted are these: for mean kidney cystine at 8 months-of-age: Ctns KO female mice, diet from 6-to-8 months-of-age; for kidney cystine as percentage of mean control diet, pooled for 8 and 12 months-of-age: 2 and 6 months of treatment. How it is done:
For this pilot study, we selected tissue accumulation of cystine as a clear and measurable outcome to quantify long-term interference of dAAs with the endocytic supply of disulfide-rich plasma proteins to kidney PTCs.
Mice were euthanized by cabon dioxide (CO2) inhalation. Dissected tissues were homogenized in 10 mM N-ethylmaleimide. Protein fraction was obtained after precipitation in 10% 5-sulfosalicylic acid and centrifugation at 20,000g for 20 min at 4 °C. Protein pellet was resuspended in 100 mM NaOH and assayed by the Bio-Rad Protein Assay according to manufacturer’s instructions. Supernatant (50 μl) was mixed with 50 μL of the internal standard solution (Cystine d6) and vortexed for 5 s; then the mixture was extracted with 200 μl of acetonitrile, vortexed for at least 30 s, then centrifuged at 13,000 rpm for 9 min. Liquid chromatography and mass spectrometry analysis was performed by a UHPLC Agilent 1290 Infinity II 6470 (Agilent Technologies) equipped with an ESI-JET-STREAM source operating in the positive ion (ESI +) mode. Equipment was controlled and data were analyzed using MassHunter Workstation (Agilent Technologies). The separation column was InfinityLab Poroshell 120 HILIC 1.9 μm 100 × 2.1 mm (Agilent Technologies). Validation of the method was performed basing on the US Food and Drug Administration (FDA) guideline for industry bioanalytical method validation (FDA 2013) and European Medicines Agency (EMA) guideline (EMA 2011). The assay was validated for selectivity, specificity, linearity and limit of quantification, accuracy and precision, matrix effects and recovery, and stability.

The target of another assay is porcine megalin (Sus scrofa, UniProt C0HL13). Kind of assay: Surface plasmon resonance: competition for lysozyme binding to chip-immobilized megalin. The conditions noted are these: 10 µg/ml lysozyme in 0 to 100 mM amino-acid. As for the experimental part:
To directly address whether supra-physiological concentrations of dibasic amino-acids (dAAs) can interfere with binding of protein ligands to megalin, we used surface plasmon resonance. Sensor chips were derivatized with porcine megalin at high density. […] After flushing, chips were incubated with 10 µg/ml of three analytes: the megalin chaperone, RAP (receptor-associated protein), as positive control (not shown), or two physiological megalin ligands: transcobalamine:cobalamine complexes (TC:B12; Fig. 1; sensorgrams shown at Supplemental Fig. 1a) or lysozyme (Supplemental Fig. 1b), diluted in 0 to 100 mM of the same amino-acids in buffer. […] The supraphysiological range for effective competition in vitro defined the necessary increment in urinary concentration from dietary supplementation for significant competition in vivo.
Surface plasmon resonance (SPR) analysis of the binding to chip-immobilized megalin of receptor-associated protein (RAP), transcobalamine:cobalamine complex (TC:B12) and lysozyme was carried out using a Biacore T200 instrument (Uppsala, Sweden). The sensor chips (type CM5) were activated with a 1:1 mixture of 0.2 M N-ethyl-N′-(3-dimethylaminopropyl) carbodiimide and 0.05 M N-hydroxysuccinimide in H2O. Porcine megalin[49] was immobilized on the chip in 10 mM sodium acetate, pH 4.0, and the remaining binding sites were blocked with 1 M ethanolamine, pH 8.5. The SPR signal generated from immobilized megalin were obtained with a density of 4.5 fmol protein/mm^2.
Human RAP was produced as recombinant protein in E. coli[50] and used to validate the sensor chip. TC was purified and complexed with B12 as described (TC/B12)[50],[51]. Human recombinant lysozyme was purchased from Sigma-Aldrich (expressed in rice, # L1667). Sensorgrams were generated using each of these three ligands at 10 µg/ml in a running buffer consisting of 10 mM Hepes, 150 mM NaCl, 4 mM CaCl2 and 0.05% Tween 20, pH 7.4. The flow cells were regenerated with 1 M ethanolamine pH 9.0. Analyte testing was performed as a dual injection starting with running buffer supplemented with the defined concentrations of amino acids followed by injection of analyte in the same solution. The pH of all buffers was adjusted after amino acids addition. All binding experiments were made as at least independent triplicate of technical duplicates and data were analyzed using the Biacore T200 evaluation software version 3.1.
In general terms: In SPR one partner is held on a chip, and binding of the other changes the refractive index at the surface.

Assay [1] relates to kidney proximal tubular cells. Briefly: Triple fluorescence of lysosomes and endogenous albumin in PTCs of Ctns KO mice (2-to-6 months diet). It counts as in vivo. As to conditions: Ctns KO female mice, diet from 2-to-6 months-of-age. As for the experimental part:
For in vivo endocytic tracing in PTCs, Texas Red-ovalbumin (300 µg, Invitrogen #O23021) was injected intravenously at 20 min before sacrifice. For immunofluorescence, antigen retrieval was promoted in citrate buffer, pH 6, at 95 °C for 20 min using a Lab Vision Pretreatment Module™ (Thermo Scientific). Tissue was permeabilized with PBS/0.3% Triton-X100 for 5 min, then for one further hour with 10% bovine serum albumin (BSA)/3% milk to block non-specific sites. Sections were incubated overnight at 4 °C with the following primary reagents in blocking buffer: sheep anti-megalin (1/800, kindly provided by Drs P. Verroust and R. Kozyraki, INSERM U968, Paris, F-75012, FR), rat anti-LAMP-1 (1/100; #1D4B, Hybridoma Bank), mouse anti-ezrin (1/100, #MS-661-P1, ThermoScientific), mouse anti-Ki67 (1/250, #556003, BD-Pharmingen), rabbit anti-human albumin (1/1000; Dako #A0001). After washing, sections were further incubated with the appropriate AlexaFluor-secondary antibodies for 1 h at room temperature in 10% BSA/0.3% Triton-X100 and mounted with Faramount aqueous mounting medium (Dako). Sections were imaged on a spinning disk confocal microscope using EC Plan-NeoFluar 40X/1.3 or 100x/1.4 Oil DIC objective (Cell Observer Spinning Disk; Zeiss). Proliferative events in kidney cortex were quantified as described. Alternatively, whole kidney images were acquired using a Pannoramic 250 Flash III microscope (3DHistech). Histological PAS staining and quantification of the frequency of swan-neck lesions were performed as described. Sirius Red staining of paraffine sections and morphometry in total sagittal kidney sections after conversion to red fluorescence were performed as described[53],[54]. […]
Supplemental Figure 3. […]
not detected within PT lysosomes of dAA-treated mice under identical immunolabeling /imaging conditions, indicating impaired endocytosis and/or […] degradation upon dbAA supplementation. […]

Chain of porcine megalin (C0HL13 26-4652): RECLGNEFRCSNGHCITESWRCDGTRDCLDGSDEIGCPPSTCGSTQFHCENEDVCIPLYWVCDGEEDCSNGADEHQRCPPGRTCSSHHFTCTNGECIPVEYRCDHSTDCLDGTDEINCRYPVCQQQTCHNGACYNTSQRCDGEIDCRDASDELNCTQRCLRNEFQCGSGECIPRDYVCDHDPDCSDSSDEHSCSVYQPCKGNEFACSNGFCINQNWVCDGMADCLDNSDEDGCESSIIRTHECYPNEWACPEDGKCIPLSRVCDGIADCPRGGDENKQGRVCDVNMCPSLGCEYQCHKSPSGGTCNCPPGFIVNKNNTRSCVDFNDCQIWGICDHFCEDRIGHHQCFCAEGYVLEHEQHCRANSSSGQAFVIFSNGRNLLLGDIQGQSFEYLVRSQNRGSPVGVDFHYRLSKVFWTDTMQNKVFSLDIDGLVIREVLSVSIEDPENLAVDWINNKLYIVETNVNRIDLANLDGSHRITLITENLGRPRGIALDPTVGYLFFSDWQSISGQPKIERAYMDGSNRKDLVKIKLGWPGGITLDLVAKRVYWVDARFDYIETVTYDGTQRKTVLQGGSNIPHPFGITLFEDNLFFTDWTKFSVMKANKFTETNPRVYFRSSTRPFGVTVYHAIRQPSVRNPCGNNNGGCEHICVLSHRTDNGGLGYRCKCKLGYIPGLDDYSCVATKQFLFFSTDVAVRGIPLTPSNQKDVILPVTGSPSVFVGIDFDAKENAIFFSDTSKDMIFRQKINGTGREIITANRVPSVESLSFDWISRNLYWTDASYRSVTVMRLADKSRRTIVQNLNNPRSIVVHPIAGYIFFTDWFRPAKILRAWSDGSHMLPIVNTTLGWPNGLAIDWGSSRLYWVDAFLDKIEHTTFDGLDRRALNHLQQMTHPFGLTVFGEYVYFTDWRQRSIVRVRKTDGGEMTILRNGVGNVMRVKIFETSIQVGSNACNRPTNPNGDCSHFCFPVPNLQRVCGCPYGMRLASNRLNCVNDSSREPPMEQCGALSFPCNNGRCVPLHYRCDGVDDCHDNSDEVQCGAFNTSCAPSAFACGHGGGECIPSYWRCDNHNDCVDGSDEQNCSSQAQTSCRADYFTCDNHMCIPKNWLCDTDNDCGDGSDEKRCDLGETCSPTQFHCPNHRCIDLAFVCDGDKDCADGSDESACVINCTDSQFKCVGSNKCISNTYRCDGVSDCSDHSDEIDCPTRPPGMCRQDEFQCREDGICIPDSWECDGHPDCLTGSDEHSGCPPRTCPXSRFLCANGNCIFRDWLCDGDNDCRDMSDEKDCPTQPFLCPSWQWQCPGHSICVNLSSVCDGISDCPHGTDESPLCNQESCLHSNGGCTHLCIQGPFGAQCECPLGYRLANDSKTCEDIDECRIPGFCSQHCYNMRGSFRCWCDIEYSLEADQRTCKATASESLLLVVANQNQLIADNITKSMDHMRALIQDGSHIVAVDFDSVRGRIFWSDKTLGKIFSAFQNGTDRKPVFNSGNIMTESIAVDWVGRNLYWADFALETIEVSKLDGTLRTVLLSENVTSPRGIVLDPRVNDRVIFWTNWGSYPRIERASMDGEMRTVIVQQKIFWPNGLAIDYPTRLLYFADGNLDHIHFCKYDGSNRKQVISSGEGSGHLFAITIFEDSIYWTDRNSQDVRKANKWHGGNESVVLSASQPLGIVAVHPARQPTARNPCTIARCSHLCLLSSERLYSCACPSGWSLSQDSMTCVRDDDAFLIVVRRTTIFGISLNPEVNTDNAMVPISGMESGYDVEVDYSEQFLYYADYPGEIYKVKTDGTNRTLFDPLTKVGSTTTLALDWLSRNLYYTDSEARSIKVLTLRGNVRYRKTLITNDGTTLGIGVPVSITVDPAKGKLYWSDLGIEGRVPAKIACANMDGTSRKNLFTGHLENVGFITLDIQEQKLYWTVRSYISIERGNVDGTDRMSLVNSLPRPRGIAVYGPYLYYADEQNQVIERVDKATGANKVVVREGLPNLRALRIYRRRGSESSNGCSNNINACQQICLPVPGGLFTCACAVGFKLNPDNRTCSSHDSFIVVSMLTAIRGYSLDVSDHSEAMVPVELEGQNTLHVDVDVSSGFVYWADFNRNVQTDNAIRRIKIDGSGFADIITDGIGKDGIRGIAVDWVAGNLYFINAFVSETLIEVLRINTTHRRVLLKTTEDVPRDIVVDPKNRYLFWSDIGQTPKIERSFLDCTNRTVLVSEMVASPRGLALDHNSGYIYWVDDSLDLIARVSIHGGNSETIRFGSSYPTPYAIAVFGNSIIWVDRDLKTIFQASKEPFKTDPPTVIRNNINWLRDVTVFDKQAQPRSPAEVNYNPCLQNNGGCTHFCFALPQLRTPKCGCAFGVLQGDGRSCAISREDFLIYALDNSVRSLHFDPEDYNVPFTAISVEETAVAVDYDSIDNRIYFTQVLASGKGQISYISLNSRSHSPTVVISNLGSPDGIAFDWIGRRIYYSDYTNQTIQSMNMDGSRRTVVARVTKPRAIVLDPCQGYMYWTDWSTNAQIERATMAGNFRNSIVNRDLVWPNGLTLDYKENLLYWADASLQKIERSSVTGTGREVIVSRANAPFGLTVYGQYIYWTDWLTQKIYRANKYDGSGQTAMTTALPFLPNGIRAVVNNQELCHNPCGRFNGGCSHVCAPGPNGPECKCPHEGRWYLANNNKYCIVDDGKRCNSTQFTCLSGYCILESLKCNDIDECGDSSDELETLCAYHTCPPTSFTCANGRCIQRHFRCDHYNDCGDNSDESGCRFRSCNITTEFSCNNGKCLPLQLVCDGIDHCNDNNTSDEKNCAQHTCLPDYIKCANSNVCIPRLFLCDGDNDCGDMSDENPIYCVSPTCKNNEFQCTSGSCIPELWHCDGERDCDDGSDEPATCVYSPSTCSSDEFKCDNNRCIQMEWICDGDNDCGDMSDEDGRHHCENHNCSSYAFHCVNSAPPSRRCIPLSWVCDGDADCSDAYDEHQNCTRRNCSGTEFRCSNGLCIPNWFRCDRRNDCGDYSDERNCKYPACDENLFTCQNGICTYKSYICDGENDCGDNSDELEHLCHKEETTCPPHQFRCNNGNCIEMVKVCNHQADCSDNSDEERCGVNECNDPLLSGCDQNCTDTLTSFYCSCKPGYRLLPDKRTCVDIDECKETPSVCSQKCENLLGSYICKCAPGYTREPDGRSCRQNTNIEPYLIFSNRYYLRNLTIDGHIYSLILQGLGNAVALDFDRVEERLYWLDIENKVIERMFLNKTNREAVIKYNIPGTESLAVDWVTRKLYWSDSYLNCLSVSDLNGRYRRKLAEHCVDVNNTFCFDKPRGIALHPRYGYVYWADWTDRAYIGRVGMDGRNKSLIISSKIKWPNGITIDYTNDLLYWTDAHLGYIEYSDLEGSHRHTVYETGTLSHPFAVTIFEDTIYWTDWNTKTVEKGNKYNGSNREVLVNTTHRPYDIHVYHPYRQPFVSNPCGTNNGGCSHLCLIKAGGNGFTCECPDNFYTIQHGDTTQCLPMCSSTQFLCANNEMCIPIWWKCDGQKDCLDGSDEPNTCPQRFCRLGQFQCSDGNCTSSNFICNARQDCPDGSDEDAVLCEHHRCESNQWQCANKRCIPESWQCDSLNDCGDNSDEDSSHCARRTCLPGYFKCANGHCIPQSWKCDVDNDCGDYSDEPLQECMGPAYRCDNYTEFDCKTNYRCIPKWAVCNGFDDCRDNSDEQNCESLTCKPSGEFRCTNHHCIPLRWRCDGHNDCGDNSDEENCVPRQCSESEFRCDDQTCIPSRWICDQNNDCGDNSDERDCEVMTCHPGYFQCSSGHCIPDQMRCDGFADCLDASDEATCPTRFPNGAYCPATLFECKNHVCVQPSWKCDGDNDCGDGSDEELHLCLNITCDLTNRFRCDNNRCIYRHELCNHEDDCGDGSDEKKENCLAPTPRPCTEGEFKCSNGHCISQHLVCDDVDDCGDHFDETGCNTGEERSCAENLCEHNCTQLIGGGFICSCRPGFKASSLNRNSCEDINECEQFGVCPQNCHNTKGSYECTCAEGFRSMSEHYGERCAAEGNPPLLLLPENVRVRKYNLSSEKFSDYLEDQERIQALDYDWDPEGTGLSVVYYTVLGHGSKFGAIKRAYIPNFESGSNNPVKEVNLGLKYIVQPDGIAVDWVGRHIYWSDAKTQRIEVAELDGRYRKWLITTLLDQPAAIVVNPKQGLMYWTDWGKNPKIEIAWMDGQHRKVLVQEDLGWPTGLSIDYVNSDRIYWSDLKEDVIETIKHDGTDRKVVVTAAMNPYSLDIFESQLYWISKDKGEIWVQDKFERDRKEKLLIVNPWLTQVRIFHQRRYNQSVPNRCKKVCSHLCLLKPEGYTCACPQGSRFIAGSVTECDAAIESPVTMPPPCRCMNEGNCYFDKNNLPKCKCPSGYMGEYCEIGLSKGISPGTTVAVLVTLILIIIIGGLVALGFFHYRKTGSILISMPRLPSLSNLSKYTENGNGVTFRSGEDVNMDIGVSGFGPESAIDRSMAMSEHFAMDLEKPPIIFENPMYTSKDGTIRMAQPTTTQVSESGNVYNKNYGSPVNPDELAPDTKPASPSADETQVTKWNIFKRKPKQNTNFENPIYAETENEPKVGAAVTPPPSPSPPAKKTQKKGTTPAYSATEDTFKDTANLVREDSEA

`NCCCC[C@H](N)C(=O)O` [5x-L-lysine, L-lysine]: in the assay on Ctns KO mice kidneys, the “mean kidney cystine at 8 months-of-age” value is reported as 83.6 ± 38.7 nmol hemi-cystine/mg kidney protein. Also, the “kidney cystine as percentage of mean control diet, pooled for 8 and 12 months-of-age” value in the assay with Ctns KO mice kidneys (Ctns KO mice) was “significantly lower than control”. Moreover, the “cumulative decrease of kidney cystine accumulation” value in the assay with Ctns KO mice kidneys (Ctns KO mice, two-months treatment from 6-to-8 months of age) is on record as “~ twofold”. For the same compound, the “effect on megalin binding of lysozyme” value at porcine megalin is recorded as “concentration-dependent decrease”. In assay [1], the “endogenous albumin signal in PTC lysosomes” value is recorded as “disappearance of albumin signal”; the “lysosomal enlargement/deformation in PTCs” value was “prevent lysosomal enlargement and distorsion”.
Consider `N=C(N)NCCC[C@H](N)C(=O)O` [5x-L-arginine, L-arginine], for which the “mean kidney cystine at 8 months-of-age” value with Ctns KO mice kidneys was 90.0 ± 32.3 nmol hemi-cystine/mg kidney protein. For the same compound, the “kidney cystine as percentage of mean control diet, pooled for 8 and 12 months-of-age” value in the assay with Ctns KO mice kidneys (Ctns KO mice) is “without reaching statistical significance”. The “effect on megalin binding of lysozyme” value at porcine megalin is on record as “concentration-dependent decrease”. Also, in assay [1], the “lysosomal enlargement/deformation in PTCs” value is “prevent lysosomal enlargement and distorsion”.
